{"source": "patent US20240091295A1", "about": "“PIPER NIGRUM COMPOSITION AND METHOD OF TREATING PAIN” (priority 2022, published 2024)", "tested_on": "mice", "test": "Acetic acid-induced writhing test", "type": "in vivo", "conditions": "30 mg/kg i.p., vs control group", "procedure": "Male Balb/c mice procured from the authorized animal supplier Biogen Laboratory Animal Facility, Bangalore, India were used for the animal experiments. The animals were housed in the animal facility of R&D Center, Vidya Herbs Pvt Ltd under controlled environmental conditions (temperature: 23±2° C., relative humidity: 35-50%, 12 h light/dark cycle). The animals were given commercial pellet diet and water ad libitum. All the animals were allowed to acclimatize to the environmental conditions before the start of experiments. The experimental protocols were approved by the Institutional Animal Ethics Committee (IAEC) of Vidya Herbs Pvt Ltd., Bangalore, India (VHPL/PCL/IAEC/01/2021).\nTwenty-four male mice were randomized to four groups (n=6 in each group): Control group were given normal saline solution while positive control group received reference drug Diclofenac sodium (30 mg/kg). Two test doses of the inventive composition (25 and 50 mg/kg body weight) were used in the test. All the treatments were intraperitoneally injected. 30 min after the respective treatments, the animals were given 10 mL/kg body weight of 1% acetic acid intraperitoneally. The number of writhes were recorded after 10 min of acetic acid administration.\nAll the experimental data were analyzed by one way ANOVA followed by Tukey's multiple comparison test using GraphPad Prism 9.0 (GraphPad Software, Inc.). […]"}
{"smiles": "O=C(O)Cc1ccccc1Nc1c(Cl)cccc1Cl", "note": "[diclofenac sodium, Diclofenac sodium]", "values": [{"measurement": "writhing inhibition", "result": 86.55, "unit": "%"}]}
